In test [1] the target is T1, Plasmodium falciparum lysyl t-RNA synthetase (Pf-KRS1) (Plasmodium falciparum, UniProt Q8IDJ8).
T1 construct: Pf KRS1-; made in house; host or cells: E. coli BL21 (DE3)
Description: Pf-KRS1 inhibition biochemical assay (Kinase-Glo, ATP depletion). The following applies: read-out: Pf-KRS pIC50 (converted). From the text:
Plasmodium falciparum Lysine tRNA Synthetase (KRS1) Biochemical Assay Methodology.
Lysine tRNA Synthetase (KRS1) is an enzyme which catalyses the esterification of L-Lysine to the appropriate transfer ribonucleic acid (tRNA), to form an aminoacyl-tRNA. Once the tRNA is charged, a ribosome transfers the amino acid from the tRNA onto a growing peptide, according to the genetic code.
The substrates of this reaction are L-lysine, and adenosine triphosphate (ATP), the overall reaction is: amino acid+tRNA+ATP→aminoacyl-tRNA+AMP+PPi
In this overall reaction AMP is adenosine monophosphate and PP; is inorganic pyrophosphate. The reaction progression in a biochemical assay can be tracked by the depletion of one of the substrates, in the case of this invention, ATP. This was done using the proprietary assay kit, Kinase Glo® Assay which is a luminescent kinase assay platform suitable for monitoring kinase activities using up to 10 μm ATP which is commercially available from the Promega Corporation of Madison, Wis., USA. The Kinase-Glo® Assay was performed in a single well of a multiwell plate by adding a volume of Kinase-Glo® Reagent equal to the volume of a completed kinase reaction and measuring luminescence. The resulting luminescent signal is correlated with the amount of ATP present and is inversely correlated with the amount of kinase activity. As such by use of this assay methodology a reduction of the luminescent signal is relative to the reduction in ATP as the reaction progresses. A compound which inhibits the action of KRS will show no drop in the luminescent signal from assay controls.
Assays were performed using both Plasmodium falciparum and human KRS to assess any selectivity of various test compounds.
Test compounds were solubilized in DMSO at a top concentration of 10 mM and serially diluted 1 in 3 to achieve a range of final assay concentrations of 50 μM to 2.5 nM in 10 μl reaction volume.
KRS was diluted to a working concentration of 75 nM in assay buffer (25 mM HEPES, 25 mM KOH, 10 mM MgCl2.6H2O, 50 mM KCl), and the following ‘Master Mix’ prepared in assay buffer: 0.1 mg/ml BSA, 250 μM DTT, 200 μM Spermine, 0.05% NP-40, ATP 3 μM for Pf KRS1 (4 μM for Hs KRS1), 0.4 mg/ml tRNA from Yeast, 60 μM L-Lysine, 0.5 U/ml Pyrophosphatase.
Plates were incubated at room temperature for 5 h for Pf KRS (2.5 hrs for HsKRS), then the assay stopped by the addition of 10 μl of The Kinase-Glo® Reagent Assay was performed in a single well of a multiwell plate by adding a volume of Kinase-Glo® Reagent which is commercially available from the Promega Corporation of Madison, Wis., USA. The plates were incubated in the dark for a further 15 mins before being read for luminescence on a BMG PHERAstar® FSX plate reader which is a multi-mode reader for use in high-throughput screening available from BMG Labtech if Cary, N.C., USA. Data were analysed by calculating the percentage inhibition compared to the maximum and minimum assay controls. Concentration effect curves were fitted using nonlinear regression within ActivityBase and IC50 values were determined using standard protocols.
For orientation: Kinase-Glo measures the ATP left after a reaction by luminescence.

The subject of test [2] is Plasmodium falciparum strain 3D7. Nature of the test: Plasmodium falciparum 3D7 in vitro growth inhibition (SYBRgreen I). The following applies: Plasmodium falciparum, 3D7; read-out: pEC50 for Pf 3D7 (converted). Format: cell-based. The method, then:
Parasite Cultures and Cytotoxicity Assay Methodology for Plasmodium falciparum. […] Growth inhibition of the Plasmodium falciparum cultures was quantified in a 10-point dose response curve with a 1 in 3 dilution series from a top assay concentration of 50 μM. This 384 well plate based fluorescence assay utilises the binding of SYBRgreen I (Thermo Fisher Scientific/Invitrogen cat. no. S7585) to double stranded DNA, which greatly increases the fluorescent signal at 528 nm after excitation at 485 nm. Mefloquine was used as a drug control to monitor the quality of the assay (Z′=0.6 to 0.8, where Z′ is a measure of the discrimination between the positive and negative controls on a screen plate). Dose-response curves were determined from a minimum of 3 independent experiments. Compound bioactivity was expressed as EC50, the effective concentration of compound causing 50% parasite death.

Test [3] concerns Cryptosporidium parvum. Nature of the test: In vitro Crytosporidium inhibition assay. Format: cell-based. The following applies: Cryptosporidium parvum; read-out: Cryptosporidium parvum pEC50 (converted). From the text:
Assay Method for Measurement of In Vitro Inhibition of Crytosporidium.
These experiments were run in accordance with the method of Besssoff et. al. Antimicrob. Agents Chemother. 2013, 57:1804-1814. Results from these experiments are provided in the Experimental Results hereinafter.

Test [4] has as its system Hep G2. Description: Hep G2 in-vitro cytotoxicity assay. Format: cell-based. As to conditions: Homo sapiens, HepG2, read-out: Hs HEPG2 pEC50 (converted). The source says:
In-vitro cytotoxicity studies can be carried out using Hep G2 (Human hepatocyte carcinoma, HPACC cat. no. 85011430) used as indicators for general mammalian cell toxicity. Hep G2 in-vitro cytotoxicity can be assessed using the assay procedure as described in “Use of a human-derived liver cell line for the detection of cytoprotective, antigenotoxic and cogenotoxic agents”, Volker Mersch-Sundermann, Siegfried Knasmüller, Xin-jiang Wu, Firouz Darroudi, Fekadu Kassie. J. Tox 198 (2004) 329-340) the contents of which are incorporated herein by reference.

Several values for one entry are separate records, joined by “and”; a condition that tells them apart may be missing. Equal entries are not always repeated. Structures can show the parent of a compound that is named as a salt.

T1 sequence (Q8IDJ8 entry or part of it, looked up, natural form): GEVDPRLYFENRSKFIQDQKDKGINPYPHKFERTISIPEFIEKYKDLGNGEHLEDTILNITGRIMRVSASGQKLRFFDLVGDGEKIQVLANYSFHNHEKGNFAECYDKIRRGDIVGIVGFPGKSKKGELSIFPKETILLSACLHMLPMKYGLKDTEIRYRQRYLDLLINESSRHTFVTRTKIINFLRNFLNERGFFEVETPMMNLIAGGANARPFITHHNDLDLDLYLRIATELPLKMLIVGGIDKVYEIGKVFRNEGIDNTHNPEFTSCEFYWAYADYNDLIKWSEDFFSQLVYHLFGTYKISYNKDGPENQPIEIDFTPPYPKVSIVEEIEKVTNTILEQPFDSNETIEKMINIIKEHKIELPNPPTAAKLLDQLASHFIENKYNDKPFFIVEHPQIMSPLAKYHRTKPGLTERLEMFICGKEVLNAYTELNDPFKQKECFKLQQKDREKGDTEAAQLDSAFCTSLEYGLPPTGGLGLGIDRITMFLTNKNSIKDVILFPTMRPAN

For `O=C(NCC1CCCC1)c1cc(=O)c2ccccc2o1` [Example 23, N-(cyclopentylmethyl)-4-oxo-chromene-2-carboxamide], the IC50 in test [1] was 0.398 µM. In addition, the EC50 in test [2] is 1.58 µM; in test [3], 2 µM. As to `COc1cccc2c(=O)cc(C(=O)NCC3CCCCC3)oc12` [Example 66, N-(cyclohexylmethyl)-8-methoxy-4-oxo-4H-chromene-2-carboxamide], the IC50 in test [1] was 0.501 µM. Further, the EC50 in test [2] was 2.51 µM. Take `NC(=O)c1ccc2oc(C(=O)NCC3CCCCC3)cc(=O)c2c1` [Example 43, N2-(cyclohexylmethyl)-4-oxo-chromene-2,6-dicarboxamide]: the IC50 in test [1] was 0.398 µM. Moreover, the EC50 in test [2] was 3.16 µM; in test [3], 5.01 µM. With `O=C(NCC1CCCCO1)c1cc(=O)c2cc(F)ccc2o1` (stereo not drawn) [Example 32, 6-fluoro-4-oxo-N-(tetrahydropyran-2-ylmethyl)chromene-2-carboxamide], the IC50 in test [1] was 0.398 µM and 0.794 µM. The EC50 in test [2] was 1.58 µM. With `O=C(NC[C@@H]1CCCC[C@H]1O)c1cc(=O)c2cc(F)ccc2o1` [Example 57E, 6-Fluoro-N-(((1S,2R)-2-hydroxycyclohexyl)methyl)-4-oxo-4H-chromene-2-carboxamide], in test [4], the EC50 was 50.1 µM. Consider `O=C(NCC1(O)CCC(F)(F)CC1)c1cc(=O)c2cc(O)ccc2o1` [Example 57, N-[(4,4-difluoro-1-hydroxy-cyclohexyl)methyl]-6-hydroxy-4-oxo-chromene-2-carboxamide], for which the IC50 in test [1] is 0.126 µM. Also, the EC50 in test [2] is 0.158 µM; in test [3], 5.01 µM.

With `O=C(NCC1CCCCC1)c1cc(=O)c2cccc(F)c2o1` [Example 8, N-(cyclohexylmethyl)-8-fluoro-4-oxo-chromene-2-carboxamide], in test [4], the EC50 is 50.1 µM. Consider `CCc1ccc2oc(C(=O)NCC3(O)CCCCC3)cc(=O)c2c1` [Example 45, 6-ethyl-N-[(1-hydroxycyclohexyl)methyl]-4-oxo-chromene-2-carboxamide], for which the EC50 in test [4] is 50.1 µM. As to `Cc1c(C(=O)NCC2CCCCC2)oc2ccccc2c1=O` [Example 90, N-(cyclohexylmethyl)-3-methyl-4-oxo-4H-chromene-2-carboxamide], the IC50 in test [1] was 1.26 µM. Also, the EC50 in test [2] is 5.01 µM. For `Nc1cc(F)cc2c(=O)cc(C(=O)NCC3(F)CCCCC3)oc12` [Example 97, 8-amino-6-fluoro-N-[(1-fluorocyclohexyl)methyl]-4-oxo-4H-chromene-2-carboxamide], the EC50 in test [2] was 0.0398 µM; in test [4] it was 20 µM.

On to `O=C(NCC1(O)CCC(F)(F)CC1)c1cc(=O)c2ccc(F)c(O)c2o1` [Example 80, N-((4,4-difluoro-1-hydroxycyclohexyl)methyl)-7-fluoro-8-hydroxy-4-oxo-4H-chromene-2-carboxamide], for which, in test [1], the IC50 was 0.316 µM. Besides, the EC50 in test [4] is 50.1 µM. On to `O=C(NCC1CCCCC1)c1cc(=O)c2cccc(CO)c2o1` [Example 82, N-(cyclohexylmethyl)-8-(hydroxymethyl)-4-oxo-chromene-2-carboxamide], for which the IC50 in test [1] is 0.251 µM. Also, the EC50 in test [2] is 0.2 µM; in test [4], 50.1 µM. `O=C(NCC1CCCCC1)c1cc(=O)c2cccc(OCCN3CCNCC3)c2o1` [Example 62, N-(cyclohexylmethyl)-4-oxo-8-(2-piperazin-1-ylethoxy)chromene-2-carboxamide dihydrochloride]: in test [4], the EC50 is 50.1 µM.

`CS(=O)(=O)Nc1cc(F)cc2c(=O)cc(C(=O)NCC3CCCCC3)oc12` [Example 100, N-(cyclohexylmethyl)-6-fluoro-8-(methanesulfonamido)-4-oxo-chromene-2-carboxamide]: the IC50 in test [1] was 0.158 µM. Besides, the EC50 in test [2] is 0.2 µM; in test [4], 50.1 µM. As for `Nc1cc(F)cc2c(=O)cc(C(=O)NCC3(O)CCCCC3)oc12` [Example 96, 8-amino-6-fluoro-N-[(1-hydroxycyclohexyl)methyl]-4-oxo-4H-chromene-2-carboxamide], the EC50 in test [2] is 0.0126 µM. Regarding `NC(=O)c1cccc2c(=O)cc(C(=O)NCC3CCCCC3)oc12` [Example 89, N2-(cyclohexylmethyl)-4-oxo-4H-chromene-2,8-dicarboxamide], the IC50 in test [1] was 0.501 µM. The EC50 in test [4] was 50.1 µM. Take `O=C(NCC1CCCCC1)c1cc(=O)c2cccc(C(=O)O)c2o1` [Example 88, 2-((Cyclohexylmethyl)carbamoyl)-4-oxo-4H-chromene-8-carboxylic acid]: the EC50 in test [3] was 7.94 µM. As for `COC(=O)c1cccc2c(=O)cc(C(=O)NCC3CCCCC3)oc12` [Example 87, Methyl 2-((cyclohexylmethyl)carbamoyl)-4-oxo-4H-chromene-8-carboxylate], the EC50 in test [2] was 0.126 µM; in test [4], 25.1 µM.

On to `CCOC(=O)CC1(CNC(=O)c2cc(=O)c3cc(F)ccc3o2)CCCCC1` [Example 57K, Ethyl 2-(1-((6-fluoro-4-oxo-4H-chromene-2-carboxamido)methyl)cyclohexyl)acetate], for which the IC50 in test [1] was 0.316 µM.

Turning to `Nc1c(F)ccc2c(=O)cc(C(=O)NCC3(O)CCC(F)(F)CC3)oc12` [Example 92, 8-Amino-N-[(4,4-difluoro-1-hydroxy-cyclohexyl)methyl]-7-fluoro-4-oxo-chromene-2-carboxamide], in test [2], the EC50 was 0.0794 µM. In the case of `O=C(NCC1(O)CCCC1)c1cc(=O)c2cc(F)cc(O)c2o1` [Example 76F, 6-fluoro-8-hydroxy-N-((1-hydroxycyclopentyl)methyl)-4-oxo-4H-chromene-2-carboxamide], the IC50 in test [1] was 0.0794 µM. Further, the EC50 in test [2] is 0.501 µM. Consider `O=C(NCC1(CCO)CCCCC1)c1cc(=O)c2cc(F)ccc2o1` [Example 40A, 6-Fluoro-N-((1-(2-hydroxyethyl)cyclohexyl)methyl)-4-oxo-4H-chromene-2-carboxamide], for which the IC50 in test [1] was 0.2 µM. Also, the EC50 is 0.2 µM in test [2] and 50.1 µM in test [4].

For `Nc1cc(F)cc2c(=O)cc(C(=O)NC[C@H]3CC[C@H](O)CC3)oc12` [Example 98, 8-amino-6-fluoro-N-[(4-hydroxycyclohexyl)methyl]-4-oxo-chromene-2-carboxamide], the EC50 is 0.631 µM in test [2] and 50.1 µM in test [4]. `CS(=O)(=O)Nc1cccc2c(=O)cc(C(=O)NCC3(O)CCCCC3)oc12` [Example 84A, N-[(1-hydroxycyclohexyl)methyl]-8-(methylsulfonamido)-4-oxo-4H-chromene-2-carboxamide]: the EC50 in test [4] is 50.1 µM.

The values above are taken from patent US11485720B2, “Anti-infective agents” (University of Dundee, priority 2016, dated 2022).
